Measured values: PubChem BioAssay AID1549 (Sanford-Burnham Center for Chemical Genomics, 2009)
The source made the active and inactive calls. How the calls were made is not given here.

Target: Influenza A virus M2 proton channel (A/TW/4845/1999 H1N1)
Assay: M2 proton channel binding, NMR based, influenza A virus H1N1 strain (AID 1549)
Conditions: NMR binding screen, M2 protein

Row | Structure (SMILES) | Kd
1 | CC(=O)CC(=O)N1C(O)CC[N+]1(C)C (stereo unspecified) | > 4 mM (inactive)
2 | CCc1nnc(NC(C)=O)s1 | > 4 mM (inactive)
3 | O=C(/C=C/c1ccc(O)cc1)c1ccc(O)cc1O | > 4 mM (inactive)
4 | CNC(=O)C(=O)Nc1cccc(Cl)c1 | > 4 mM (inactive)
5 | O=C(O)c1cccc2nsnc12 | > 4 mM (inactive)
6 | CN(C)C(=S)Nc1ccc([N+](=O)[O-])cc1 | > 4 mM (inactive)
7 | C[C@@H]1CCC2[C@](C)(CO)[C@@H](O)CC[C@]2(C)[C@@]12CC[C@@](CO)(CCO)O2 (stereo partly specified) | > 4 mM (inactive)
8 | O=C(NC1=NCCS1)c1cccc(F)c1 | > 4 mM (inactive)
9 | Cc1cc(C)c(NC(=O)CN2CCC(O)CC2)c(C)c1 | > 4 mM (inactive)
10 | Cc1c(C(=O)Nc2ccccn2)oc2ccccc12 | > 4 mM (inactive)
11 | CN1CCC(O)N1C(=O)c1ccccc1O (stereo unspecified) | > 4 mM (inactive)
12 | COc1ccc(Cc2nccc3cc(OC)c(OC)cc23)cc1OC | > 4 mM (inactive)
13 | CCN(CC)S(=O)(=O)c1cccc2nsnc12 | > 4 mM (inactive)
14 | CSc1nc(C)c(Oc2ccccc2)c(=O)n1C | > 4 mM (inactive)
15 | COC(=O)c1ccc(C(=S)N2CCOCC2)cc1 | > 4 mM (inactive)
16 | O=C1C2C3C=CC(C3)C2C(=O)N1c1cccnc1 (stereo unspecified) | > 4 mM (inactive)
17 | O=C(NCc1ccco1)c1ccc(=O)[nH]c1 | > 4 mM (inactive)
18 | Cc1cc(NC(=O)c2cc(C)on2)no1 | > 4 mM (inactive)
19 | CC(C)(C)CC(=O)N1CCC(C(N)=O)CC1 | > 4 mM (inactive)
20 | Cc1cc(=O)oc2cc(O)c(O)cc12 | > 4 mM (inactive)
21 | CC12CN3CC(C)(CN(C1)C3c1cccs1)C2O (stereo unspecified) | > 4 mM (inactive)
22 | Oc1cc2c(cc1O)C1c3ccc(O)c(O)c3OCC1(O)C2 (stereo unspecified) | > 4 mM (inactive)
23 | CC(=O)N1CC2(C)CN(C(C)=O)CC(C)(C1)C2O (stereo unspecified) | > 4 mM (inactive)
24 | Cc1ccc2c(c1)=C(c1sc(N)nc1O)C(=O)N=2 | > 4 mM (inactive)

Row | Structure (SMILES) | Kd
25 | NS(=O)(=O)c1ccc(NC(=O)C2CC2)cc1 | > 4 mM (inactive)
26 | Nc1cc(-c2ccco2)[nH]n1 | > 4 mM (inactive)
27 | O=C(O)c1snnc1-c1ccccc1 | > 4 mM (inactive)
28 | NC(=O)c1cccnc1Oc1ccccc1 | > 4 mM (inactive)
29 | O=C(Cc1c(F)cccc1Cl)Nc1ccon1 | > 4 mM (inactive)
30 | O=c1[nH]c2ccccc2c(=O)n1CCCO | > 4 mM (inactive)
31 | COc1ccc(Cl)cc1-c1n[nH]c(=S)n1C | > 4 mM (inactive)
32 | CC(CCC(=O)O)[C@H]1CCC2C3C[C@H](O)[C@@H]4C[C@H](O)CC[C@]4(C)C3CC[C@@]21C (stereo partly specified) | > 4 mM (inactive)
33 | COc1ccc(C2(C)CC(=O)NC2=O)cc1 (stereo unspecified) | > 4 mM (inactive)
34 | O=C(O)CCCCCCCC(=O)O | > 4 mM (inactive)
35 | Cc1ccc(NC(=O)c2ccccc2)s1 | > 4 mM (inactive)
36 | Cc1ccc(S(=O)(=O)CC(=O)N(C)C)cc1 | > 4 mM (inactive)
37 | CCOC(=O)c1cc(C)n(C)n1 | > 4 mM (inactive)
38 | NCc1n[nH]c(=O)c2ccccc12 | > 4 mM (inactive)
39 | Cc1nnsc1C(=O)N(C)c1ccccc1 | > 4 mM (inactive)
40 | C=CCn1c(-c2ccc(O)cc2)n[nH]c1=S | > 4 mM (inactive)
41 | CC1(C)CC(NC(=O)/C=C/C(=O)O)CC(C)(C)N1 | > 4 mM (inactive)
42 | CC(=O)c1cc(CN2C(=O)c3ccccc3C2=O)cs1 | > 4 mM (inactive)
43 | Nc1ccc(NC(=O)c2ccco2)c(Cl)c1 | > 4 mM (inactive)
44 | O=C(O)c1cccc(N2C(=O)C3CC=CCC3C2=O)c1 (stereo unspecified) | > 4 mM (inactive)
45 | Nc1nc(SCC(=O)c2ccc([N+](=O)[O-])cc2)n[nH]1 | > 4 mM (inactive)
46 | CC1NC(C(=O)O)Cc2c1[nH]c1ccccc21 (stereo unspecified) | > 4 mM (inactive)
47 | COc1cc2c(c(OC)c1OC)-c1ccc(OC)c(=O)cc1[C@@H](NC(C)=O)CC2 | > 4 mM (inactive)
48 | C=C(C)C1CC=C(CO)CC1 (stereo unspecified) | > 4 mM (inactive)

Row | Structure (SMILES) | Kd
49 | CSc1ccc2nnc(-c3cccnc3)n2n1 | > 4 mM (inactive)
50 | CC(C)CCCC(C)[C@H]1CCC2C3CC=C4C[C@@H](O)CC[C@]4(C)C3CC[C@@]21C (stereo partly specified) | > 4 mM (inactive)
51 | CC1=CCCC2C1(C)CCC(C)C2(C)CC/C(C)=C/C[n+]1cn(C)c2c(N)ncnc21 (stereo unspecified) | > 4 mM (inactive)
52 | NC(=O)C1CCN(c2ccc(Cl)nn2)CC1 | > 4 mM (inactive)
53 | CCCCn1c(S(=O)(=O)O)nc2ccccc21 | > 4 mM (inactive)
54 | C[C@]12CCC(=O)C=C1CCC1C2C(=O)C[C@@]2(C)C1CC[C@]2(O)C(=O)CO (stereo partly specified) | > 4 mM (inactive)
55 | c1coc(CNc2ncnc3nc[nH]c23)c1 | > 4 mM (inactive)
56 | COC(=O)c1cc2cc(N)ccc2s1 | > 4 mM (inactive)
57 | CC(=O)c1cccc(NC(=O)N2CCc3ccccc3C2)c1 | > 4 mM (inactive)
58 | CCNC(CC(=O)Nc1ccc(O)cc1)C(=O)O (stereo unspecified) | > 4 mM (inactive)
59 | COc1cc2cc[n+]3cc4c(OC)c(OC)ccc4cc3c2cc1OC | > 4 mM (inactive)
60 | Cc1cc(NC(=O)c2ocnc2C)no1 | > 4 mM (inactive)
61 | Cc1cc(O)c(NC(=O)c2ccco2)cc1C | > 4 mM (inactive)
62 | CC(=O)NC12CC3CC(C)(C1)CC(NC(C)=O)(C3)C2 | > 4 mM (inactive)
63 | O=C1CN(c2ccccc2)CC(=O)N1 | > 4 mM (inactive)
64 | CNC(Cc1c[nH]c2ccccc12)C(=O)O (stereo unspecified) | > 4 mM (inactive)
65 | NC(=O)c1ccc(-c2csnn2)cc1 | > 4 mM (inactive)
66 | O=C(O)c1ccc(-n2cccn2)cc1 | > 4 mM (inactive)
67 | COc1nc(C)ccc1-c1noc(-c2ccncc2)n1 | > 4 mM (inactive)
68 | CN(C(=O)NC1CCS(=O)(=O)C1)C1CCCCC1 (stereo unspecified) | > 4 mM (inactive)
69 | Oc1ccc([C@H]2Oc3cc(O)cc(O)c3C[C@H]2O)cc1 | > 4 mM (inactive)
70 | CN(C)c1nc(N)nc(Cn2ccnc2)n1 | > 4 mM (inactive)
71 | O=C(O)c1cc(O)c2c(c1)[C@@H]([C@H]1c3cc(C(=O)O)cc(O)c3C(=O)c3c(O[C@H]4O[C@H](CO)[C@@H](O)[C@H](O)[C@H]4O)cccc31)c1cccc(O[C@H]3O[C@H](CO)[C@@H](O)[C@H](O)[C@H]3O)c1C2=O | > 4 mM (inactive)
72 | COc1ccc(/C=C2\SC(N)=NC2=O)cc1 | > 4 mM (inactive)

Row | Structure (SMILES) | Kd
73 | O=C(O)c1cncc(-c2cccs2)c1 | > 4 mM (inactive)
74 | NCc1ccc(S(=O)(=O)O)cc1 | > 4 mM (inactive)
75 | CN(C)c1nc(N2CCOCC2)nc(N2CCOCC2)n1 | > 4 mM (inactive)
76 | COc1ccc(C(N)=O)cc1N | > 4 mM (inactive)
77 | CCP(=O)(CC)c1cccc(C)c1 | > 4 mM (inactive)
78 | O=c1cnnc(SCCc2ccccc2)[nH]1 | > 4 mM (inactive)
79 | C=C1C2CC[C@@]3(C)[C@H](c4ccoc4)OC(=O)C[C@]13O[C@H]1CC(=O)C(C)(C)[C@H](C(O)C(=O)OC)[C@@]21C (stereo partly specified) | > 4 mM (inactive)
80 | CN(C)C(=S)Nc1nc2ccccc2s1 | > 4 mM (inactive)
81 | O=C(Nc1nncs1)C1(c2ccccc2)CCCC1 | > 4 mM (inactive)
82 | CN(C)Cc1nc2c([nH]1)c(=O)[nH]c(=O)n2C | > 4 mM (inactive)
83 | Cc1cc(SCCF)n2ncnc2n1 | > 4 mM (inactive)
84 | NC(CC(=O)O)c1ccccc1 (stereo unspecified) | > 4 mM (inactive)
85 | c1ccc(C[N+]23CCN(CC2)CC3)cc1 | > 4 mM (inactive)
86 | CC(=O)c1ccc[nH]1 | > 4 mM (inactive)
87 | Cc1cc(N)ccc1NC(=O)c1ccco1 | > 4 mM (inactive)
88 | c1ccc(-c2csc(Nc3cccnc3)n2)nc1 | > 4 mM (inactive)
89 | COC[C@]12CN(C=O)C3[C@@H]4[C@H](OC)C1[C@]3(C1CC3(O)C(OC)C(O)C4(OC(C)=O)C1C3OC(=O)c1ccccc1)[C@@H](OC)C[C@H]2O (stereo partly specified) | > 4 mM (inactive)
90 | OCc1cc(-c2cccs2)on1 | > 4 mM (inactive)
91 | O=C1NC(=O)C(=Cc2cccs2)C(=O)N1 | > 4 mM (inactive)
92 | Cc1ccc(C(=O)NC2=NCCS2)o1 | > 4 mM (inactive)
93 | CC(C)n1nnc2cc(C(=O)O)ccc21 | > 4 mM (inactive)
94 | Cn1cc(Cl)c(C(=O)NC2CCCC2)n1 | > 4 mM (inactive)
95 | Cn1nnc2cc(CO)ccc21 | > 4 mM (inactive)
96 | COc1cc2c(cc1OC)[C@@H]1C(=O)c3ccc(O)c(CC=C(C)C)c3O[C@@H]1CO2 | > 4 mM (inactive)

Row | Structure (SMILES) | Kd
97 | CC(=O)CS(=O)(=O)c1ccccc1 | > 4 mM (inactive)
98 | COc1cccc(S(=O)(=O)Nc2cccnc2)c1 | > 4 mM (inactive)
99 | COc1cc([C@@H]2c3cc4c(cc3[C@H](OC(C)=O)[C@H]3COC(=O)[C@H]23)OCO4)cc(OC)c1OC | > 4 mM (inactive)
100 | O=C(NC1=NCCS1)c1ccc([N+](=O)[O-])cc1Cl | > 4 mM (inactive)
101 | CC(C(N)=O)N1C(=O)c2ccccc2C1=O (stereo unspecified) | > 4 mM (inactive)
102 | CCC(C)C(=O)OC1[C@@H]2CC3=C4CC(=O)O[C@@H](c5ccoc5)[C@]4(C)CCC3C(C)(C2=O)[C@@H](CC(=O)OC)C1(C)C (stereo partly specified) | > 4 mM (inactive)
103 | CC1=C(/C=C/C(C)=C/C=C/C(C)=C/CO)C(C)(C)CCC1 | > 4 mM (inactive)
104 | COc1ccc(Cl)cc1-c1nc(-c2ccncc2)no1 | > 4 mM (inactive)
105 | CCOC(=O)C1=C(C)N2CCN=C2S1 | > 4 mM (inactive)
106 | Cn1c(CO)nc2cc(N)ccc21 | > 4 mM (inactive)
107 | Cc1nnsc1C(=O)Nc1cccc(S(N)(=O)=O)c1 | > 4 mM (inactive)
108 | Nc1nc(SCc2ccc3c(c2)OCO3)n[nH]1 | > 4 mM (inactive)
109 | Cc1noc(C)c1C(=O)NC1=NCCS1 | > 4 mM (inactive)
110 | COC(=O)CC1SC(=O)NC1=O (stereo unspecified) | > 4 mM (inactive)
111 | CSc1nc2nc(C)cc(=O)n2[nH]1 | > 4 mM (inactive)
112 | CC(=O)Oc1ccccc1N1C(=O)C=CC1=O | > 4 mM (inactive)
113 | O=C(Nc1ccc2c(c1)OCCO2)c1ccncc1 | > 4 mM (inactive)
114 | NC(=O)c1ccsc1NC(=O)c1ccccc1[N+](=O)[O-] | > 4 mM (inactive)
115 | NC(=O)Cn1nc(-c2ccc(F)cc2)ccc1=O | > 4 mM (inactive)
116 | COc1cc2ccc(=O)oc2c2ccoc12 | > 4 mM (inactive)
